Measurements as given in the supplement of paper PMC10307832.

Tests used:
Assay in all cases: relative viability (nuclei count vs DMSO), 5 days (fraction); higher = more cells survive
Sulindac + Tozasertib = compound: CC1=C(CC(=O)O)c2cc(F)ccc2/C1=C\c1ccc([S+](C)[O-])cc1 [Sulindac] + Cc1cc(Nc2cc(N3CCN(C)CC3)nc(Sc3ccc(NC(=O)C4CC4)cc3)n2)n[nH]1 [Tozasertib] (partner 0.1 µM)
In short: (§1)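 Five library-drug doses in √10 steps were combined with a fixed anchor-drug dose, or a single drug was given alone, by pin tool to lung cancer cell lines in 1536-well plates the day after seeding. Nuclei were stained and counted after 5 days. Relative viability is the nuclei count in treated wells over that in vehicle wells, taken as the median of duplicate plates.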

[1] = compound: CN[C@@H]1C[C@H]2O[C@@](C)([C@@H]1OC)n1c3ccccc3c3c4c(c5c6ccccc6n2c5c31)C(=O)NC4 [Staurosporine] + CC(=O)c1c(C)c2cnc(Nc3ccc(N4CCNCC4)cn3)nc2n(C2CCCC2)c1=O [Palbociclib] (partner 0.5 µM)
In short: as §1

[2] = compound: CN[C@@H]1C[C@H]2O[C@@](C)([C@@H]1OC)n1c3ccccc3c3c4c(c5c6ccccc6n2c5c31)C(=O)NC4 [Staurosporine] + Nc1nc2[nH]cc(CCc3ccc(C(=O)N[C@@H](CCC(=O)O)C(=O)O)cc3)c2c(=O)[nH]1 [Pemetrexed] (partner 0.2 µM)
In short: as §1

[3] = compound: O=c1[nH]cc(F)c(=O)[nH]1 [5-Fluorouracil] + Cc1cc(Nc2cc(N3CCN(C)CC3)nc(Sc3ccc(NC(=O)C4CC4)cc3)n2)n[nH]1 [Tozasertib] (partner 0.1 µM)
In short: as §1

**Q.** How did the relative viability (Sulindac + Tozasertib; first compound 0.08 µM) turn out when UMC-11 was run?
**A.** 0.204

**Q.** And the relative viability (Sulindac + Tozasertib; first compound 0.253 µM)?
**A.** 0.192

**Q.** And the relative viability (Sulindac + Tozasertib; first compound 0.8 µM)?
**A.** 0.228

**Q.** And the relative viability (Sulindac + Tozasertib; first compound 2.53 µM)?
**A.** 0.2

**Q.** And the relative viability (Sulindac + Tozasertib; first compound 8 µM)?
**A.** 0.204

**Q.** What about the relative viability ([1]; first compound 0.005 µM) of the same cell line?
**A.** 0.335

**Q.** And the relative viability ([1]; first compound 0.05 µM)?
**A.** 0.201

**Q.** And the relative viability ([1]; first compound 0.1581 µM)?
**A.** 0.152

**Q.** And the relative viability ([1]; first compound 0.5 µM)?
**A.** 0.158

**Q.** And the relative viability ([2]; first compound 0.005 µM)?
**A.** 0.695

**Q.** And the relative viability ([2]; first compound 0.01581 µM)?
**A.** 0.472

**Q.** What about the relative viability ([2]; first compound 0.05 µM) of the same cell line?
**A.** 0.387

**Q.** What about the relative viability ([2]; first compound 0.1581 µM) of the same cell line?
**A.** 0.104

**Q.** What about the relative viability ([2]; first compound 0.5 µM) of the same cell line?
**A.** 0.0932

**Q.** What about the relative viability ([3]; first compound 0.02 µM) of the same cell line?
**A.** 0.183

**Q.** And the relative viability ([3]; first compound 0.2 µM)?
**A.** 0.188

**Q.** What about the relative viability ([3]; first compound 0.6325 µM) of the same cell line?
**A.** 0.203

**Q.** What about the relative viability ([3]; first compound 2 µM) of the same cell line?
**A.** 0.188
